The record followed here is patent US9340596B2, “Fusion protein comprising tumor necrosis factor related apoptosis inducing ligand and integrin ligand and use thereof” (NANJING UNIVERSITY, priority 2007, dated 2016).

For data set [1], the system named is COLO-205 colon cancer cells. Briefly: Anti-tumor efficacy on COLO-205 colon cancer model. In kind it is in vivo, nude mice. As to the method:
(§1) 5-6 week-old female nude mice were purchased from Shanghai Experimental Animal Center. The nude mice were injected through their tail veins with 100 μg of a specific antibody, i.e., purified Asialo GM-1 antibody (Wako Chemicals Inc., Japan) that blocks natural killer cells. After 24 hours, the upper right sides of the back of the nude mice were inoculated subcutaneously with 100,000 COLO-205 or HT-29 colon cancer cells. When the tumors reached 70 mm3, random grouping and treatment began. The recombinant TRAIL and its variant proteins were administered intraperitoneally, once daily for 10-14 days. The water-soluble camptothecin CPT-11 (11-hydroxy-camptothecin; Product Name: Irinotecan Hydrochloride Injection; Pharmacia/Upjohn Company's product) was administered intravenously once a week, two times in total. The recombinant proteins and camptothecin were diluted with a phosphate buffer. The tumor size was measured with a caliper, and the calculation formula was: […].
Two kinds of colon cancer models, COLO-205 and HT-29, were used to test the anti-tumor activity of the TRAIL variant in the athymic nude mice. Because COLO-205 colon cancer cells were sensitive to TRAIL, the therapeutic effect of separate use of TRAIL and TRAIL variant was assessed on this model. On the 8th day after the nude mice were inoculated with tumor cells, administration of drugs through the tail vein began for ten days in succession. The mice were divided into four groups; 100 μg TRAIL variant group, 20 μg TRAIL variant group, 100 μg wild-type TRAIL group, and PBS control group. […] Moreover, the TRAIL variant's inhibition of tumor growth was dose-dependent.
The invention also provides the anti-tumor effect of combined use of TRAIL variant and chemotherapeutic drug CPT-11. Protein injection was carried out by intraperitoneal injection once a day for TRAIL or TRAIL variant, for two weeks total, and intravenous injection once every two days from CPT-11 via tail veins, seven times in total. […] This effect was even better than the higher dose of the TRAIL+CPT-11 combined treatment group ([…]) (89%, P=0.001, 36 days).

Data set [2] relates to human foreskin microvascular endothelial cells. As to the kind of experiment: Cell adhesion assay of human foreskin microvascular endothelial cells on protein-coated wells. In kind it is cell-based. The method, then: The TRAIL and its variant protein are coated on a 96-well PVC plate overnight at 4° C. The coated 96-well plate was rinsed with 0.9% physiological saline, and then blocked for 1 h at 1640 culture medium containing 2% bovine serum albumin, and then rinsed again. After the human foreskin microvascular endothelial cells were digested, washed three times with phosphate buffer and re-suspended into the complete RPMI1640 medium, it was then added to the 96-well plate coated with TRAIL and its variant (40,000 cell per well). After the cells were incubated for 1.5 hours in an incubator containing 5% carbon dioxide, they were washed three times with physiological saline to remove the non-adherent cells. The adherent cells were fixed for 30 min with phosphate buffer solution (pH 7.3) containing 4% formalin and 2% sucrose, and then stained with 0.5% crystal violet. The fixed stained cells were rinsed several times, then dissolved with […] DMSO to test the absorbance values at 540 nm. All the tests should be carried out at least three times independently.

Data set [3] shares this test system. As to the kind of experiment: Binding assay of fluorescein-labeled TRAIL and its variant with endothelial cells (flow cytometer). Conditions: fluorescein-labeled protein, flow cytometry. As to the method: The TRAIL and its variant were labeled with fluorescein (Sigma company), and the labeled proteins were separated from free fluorescein through a Sephadex-G25 size exclusion column. After human foreskin microvascular endothelial cells were digested by trypsin, washed twice with ice-cold phosphate buffer containing 2% fetal calf serum, and then re-suspended, they were added with 1 μg of labeled protein for incubation for 1 h at 4° C. The fluorescent-labeled bovine serum albumin was used as a control of the test. After being washed three times, the binding capacity of the stained cells was analyzed with a flow cytometer (Becton Dickinson Company).
A general note: Flow cytometry measures light scatter and fluorescence of single cells or particles in a stream.

Data set [4] deals with COLO-205 colon cancer cells. As to the kind of experiment: Cell apoptosis, Annexin V and PI double staining, COLO-205. The data set is classed as cell-based. The method, then: (§2) After the cells treated with TRAIL and its variant were digested with trypsin, they were removed from the cultivation plate, washed twice with phosphate buffer solution, and centrifuged for 5 min at 300 g centrifugal force. The supernatants were removed, and the cells were re-suspended in 100 ul of binding buffer solution. Then, Annexin V-FITC (BD Pharmgen) was added until a final concentration of 2 μg/ml was achieved, followed by incubation at room temperature. After 10 min, 400 ul of binding buffer was added, and the cells were transferred to a flow analysis tube. 1 μg of […] (Sigma Corporation) was added to each tube. The cells were analyzed with a flow cytometer within 30 min. At least three separate tests should be carried out for each cell line.

The test system of a further data set is Jurkat T lymphoma cells. Briefly: Cell apoptosis, Annexin V and PI double staining, Jurkat. The data set is classed as cell-based. The method, then: as §2
The test system of data set [5] is MDA-MB-231 breast cancer cells. As to the kind of experiment: Cell apoptosis, Annexin V and PI double staining, MDA-MB-231. In kind it is cell-based. The method, then:
as §2

Data set [6] relates to normal human foreskin microvascular endothelial cells. Briefly: Cell toxicity on normal endothelial cells. In kind it is cell-based. Conditions: 300 ng/ml, 24 hours. The method, then:
(§3) Different from the tumor cells, the normal human foreskin microvascular endothelial cells, 293T kidney cells and primary liver cells were treated with 300 ng/ml of the TRAIL variants or TRAIL for 24 hours.

The test system of another data set is 293T kidney cells. Briefly: Cell toxicity on 293T kidney cells. In kind it is cell-based. Conditions: 300 ng/ml, 24 hours. As to the method:
as §3

The subject of a further data set is primary liver cells. Briefly: Cell toxicity on primary liver cells. The data set is classed as cell-based. The conditions noted are these: 300 ng/ml, 24 hours. As to the method: as §3
A further data set relates to HT-29 colon cancer cells. As to the kind of experiment: Anti-tumor efficacy on HT-29 colon cancer model. The data set is classed as in vivo, nude mice. The conditions noted are these: TRAIL-insensitive HT-29 model. As to the method: as §1
The invention also provides the anti-tumor effect of combined use of TRAIL variant and chemotherapeutic drug CPT-11. Protein injection was carried out by intraperitoneal injection once a day for TRAIL or TRAIL variant, for two weeks total, and intravenous injection once every two days from CPT-11 via tail veins, seven times in total. […]

The next data set deals with COLO-205 tumor tissues. Briefly: Drug distribution test of 125I-labeled recombinant proteins in tumor tissues. In kind it is in vivo. The conditions noted are these: COLO-205 tumor-bearing nude mice, 240 minutes after injection. The method, then:
Separate injection from tail veins of 100 μl containing […] of 125I-labeled human TRAIL or its variant protein into the COLO-205 tumor bearing nude mice. 5, 30, 60, 120 and 240 minutes after injection, the tumor tissues were peeled off separately and weighed, and the radiation amount of the tumor tissues were measured with a liquid scintillation counter. The amount of radiation in the tumor tissues is represented by the percentage of measuring radiation quantity per gram of tissues and the injected radiation quantity (% ID/g). The results are the average value of three independent tests.
The recombinant TRAIL and the TRAIL variant protein were labeled with a radioisotope of iodine (^125I) using a labeling kit (Pierce Corp.). The labeling results were as follows: the specific activity of ^125I-TRAIL was 7.86 μCi/μg protein, and the specific activity of ^125I-TRAIL variant was 7.49 μCi/μg protein. After the nude mice were inoculated with COLO-205 colon cancer, and when the tumor size reached 400-500 mm3, they were randomly grouped into wild-type and variant group. Each group included five time points: 5 min, 30 min, 60 min, 120 min and 240 min, and each time point included three animals. […] At each time point, the mice were sacrificed, the tumors were dissected by surgery, and the radiation dose was measured through a liquid scintillation counter. […]

Data set [7] has as its system FADD−/− deficient Jurkat cells. Briefly: Apoptosis induction in FADD-/- deficient Jurkat cells.
Excerpt: (§4) The fluorescence detection method was used to test the activity of Caspase-8 and Caspase-3 in the Jurkat cells after treatment of TRAIL and TRAIL variants.
Data set [8] has as its system Caspase-8−/− deficient Jurkat cells. Briefly: Apoptosis induction in Caspase-8-/- deficient Jurkat cells.
Excerpt: as §4

Turning to `CCc1c2c(nc3ccc(OC(=O)N4CCC(N5CCCCC5)CC4)cc13)-c1cc3c(c(=O)n1C2)COC(=O)[C@]3(O)CC` [CPT-11, reference compound], the “tumor growth inhibition (in words)” value in [1] (COLO-205, individual injection of low dose CPT-11 (6.25 mg/kg/each), vs PBS control) is “slightly inhibit the tumor growth”.

On to “TRAIL: recombinant wild-type human tumor necrosis factor-related apoptosis-inducing ligand, comparator”, for which the “reduction by free protein of endothelial cells adhered to microplates coated with RGD-L-TRAIL (competitive test)” value in data set [2] (free protein added to plates coated with TRAIL variant protein) is “has no such ability”. The “adhesion of human foreskin microvascular endothelial cells to culture plate wells coated with the protein” value in data set [2] (protein coated on 96-well plate, cells incubated 1.5 hours) is recorded as “do not adhere”. The “binding capacity with human foreskin microvascular endothelial cells” value in [3] is listed as “very weak”. Besides, the medial lethal dose in [4] (COLO-205) is 3.5 ng/mL; with Jurkat T lymphoma cells, 6.7 ng/mL; in data set [5] it was 2.3 ng/mL. Moreover, in data set [4] (COLO-205 cells, 2.43 ng/ml), the apoptosis rate is reported as 43.7%. In addition, the cell toxicity result (in data set [6]; with 293T kidney cells; with primary liver cells) was “No obvious cell toxicity” in each case. The tumor inhibition rate in [1] (COLO-205, 90 μg/day/each combined with CPT-11 6.25 mg/kg/each, 36 days) is on record as 67.8%; in [1] (COLO-205, 100 μg, used alone, ten days in succession, 37th day, vs PBS control) it was 37%. Also, the “mice whose tumors disappeared, among ten animals” value in [1] (COLO-205, 270 μg/day/each + CPT-11 combined treatment) came to 6 mice. Also, the tumor inhibition effect in [1] (COLO-205, 270 μg/day/each combined with CPT-11 6.25 mg/kg/each, 36 days) was 89%. The “dose required for the same therapeutic effect, relative to TRAIL variant” value in data set [1] (COLO-205 models, combined treatment program with CPT-11) is reported as 3-9 times. In addition, the “dose required, relative to TRAIL variant” value in the data set on HT-29 colon cancer cells was “at least 2 times”. Moreover, in the data set with COLO-205 tumor tissues, the “distribution in the tumor tissues” value is “difficult to detect”. The “induction of cell apoptosis” value in data set [7] and in data set [8] was “no induced cell apoptosis” in each case.
